Experimental data from patent US20260176265A1 (Cancer Research Technology Limited, priority 2022, published 2026).
Each block holds one compound with its values, some of them ahead of it.

How the values were obtained:
[1] = molecular target: CtermHisTag-mEGFR Triple Mutant - C797S, L858R, T790M (Homo sapiens, UniProt P00533, C797S/L858R/T790M); test: TR-FRET probe displacement assay, EGFR triple mutant; assay type: binding; conditions: T790M 1.25 nM, probe 100 nM, 30 mins room temperature
Method: (§1) Compounds (dissolved to 100 mM in DMSO) were dispensed into black low volume 384 well assay plates (Corning) over a final concentration range of 100000, 30000, 10000, 3000, 1000, 300, 100, 30, 10, and 3 nM using an Echo 550 (Labcyte). Positive control compound and DMSO as a negative control were dispensed into the first and last well, respectively. […]. Plates were read using a PheraStar FS (BMG Labtech) at Ex337 nm Ex490/520 nm. The data were analysed using Graphpad Prism/Dotmatics Studies Software. Assays conducted in technical replicate and repeated as a biological duplicate.

[2] = molecular target: T1, Phospho-EGFR (Tyr1068) in H1975 cells (Homo sapiens, UniProt P00533, L858R/T790M); test: HTRF pEGFR/total EGFR assay in H1975 cells; assay type: cell-based; conditions: compound 3 hours, ratio pEGFR/total EGFR
T1 construct: host or cells: H1975
Method: H1975 cells (ATCC CRL-5908) were plated at 20,000 cells per well in 96 well plates and placed at 37° C. 5% CO2. Once adhered (after 24h) cells were treated with compounds dissolved in DMSO at a final concentration of 0.1% DMSO in media. Compounds were diluted in media then added to cells for 3 hours in duplicate. Compound and media were removed from the cells, then 50ul of HTRF lysis buffer is added (lysis buffer was diluted from 4× stock to 1× in DI water, with 1% blocking agent also added). Cells were lysed on a plate shaker (2000 rpm) for 30 minutes at room temperature. pEGFR expression was monitored using the Cisbio Phospho-EGFR (Tyri068) cellular kit (64EG1 PEH). Total EGFR expression was monitored using the Cisbio Total EGFR cellular kit (64NG1 PEH) as per manufacturer's instructions. Fluorescence emission was read at two different wavelengths (665 nm and 620 nm) on a PheraStar. Results were calculated as ratio of pEGFR/total EGFR and then percentage of 0 uM control.

[3] = molecular target: T2, Phospho-EGFR (Tyr1068) in H1975 C797S cells (Homo sapiens, UniProt P00533, C797S/L858R/T790M); test: HTRF pEGFR/total EGFR assay in H1975 C797S cells; assay type: cell-based; conditions: H1975 C797S cells (CRISPR), compound 3 hours, ratio pEGFR/total EGFR
T2 construct: endogenous in cells; host or cells: H1975 C797S (CRISPR-edited in house from ATCC CRL-5908)
Method: H1975 C797S cells (ATCC CRL-5908) were genetically engineered by CRISPR editing of EGFR C797S in house and validated by NGS. Cells were plated at 20,000 cells per well in 96 well plates and placed at 37° C. 5% CO2. Once adhered (after 24h) cells were treated with compounds dissolved in DMSO at a final concentration of 0.1% DMSO in media. Compounds were diluted in media then added to cells for 3 hours in duplicate. Compound and media were removed from the cells, then 50 ul of HTRF lysis buffer was added (lysis buffer was diluted from 4× stock to 1× in DI water, with 1% blocking agent also added). Cells were lysed on a plate shaker (2000 rpm) for 30 minutes at room temperature. pEGFR expression was monitored using the Cisbio Phospho-EGFR (Tyr1068) cellular kit (64EG1PEH). Total EGFR expression was monitored using the Cisbio Total EGFR cellular kit (64NG1PEH) as per manufacturer's instructions. Fluorescence emission was read at two different wavelengths (665 nm and 620 nm) on a PheraStar. Results were calculated as ratio of pEGFR/total EGFR and then percentage of 0 uM control.

[4] = molecular target: CtermHisTag-mEGFR Wild type (Homo sapiens, UniProt P00533); test: TR-FRET probe displacement assay, EGFR wild type; assay type: binding; conditions: EGFR wild type 1.25 nM, probe 100 nM, 30 mins room temperature
Method: as §1

[5] = molecular target: T3, Phospho-EGFR (Tyr1068) in A431 cells (Homo sapiens, UniProt P00533); test: HTRF pEGFR/total EGFR assay in A431 cells (EGF stimulated); assay type: cell-based; conditions: compound 2.5 hours then 100 ng/ml EGF 30 mins, ratio pEGFR/total EGFR
T3 construct: endogenous in cells; host or cells: A431
Method: Cells were plated at 20,000 cells per well in 96 well plates and placed at 37° C. 5% CO2. Once adhered (after 24h) cells were treated with compounds dissolved in DMSO at a final concentration of 0.1% DMSO in media. Compounds were diluted in media then added to cells for 2.5 hours in duplicate, 100 ng/ml EGF (ThermoFisher, PHG0311 was is added to all compound treated cells as well as a control for 30 mins. Compound and media were removed from the cells, then 50ul of HTRF lysis bufferwas added (lysis bufferwas diluted from 4× stock to 1× in DI water, with 1% blocking agent also added). Cells were lysed on a plate shaker (2000 rpm) for 30 minutes at room temperature. pEGFR expression was monitored using the Cisbio Phospho-EGFR (Tyr1068) cellular kit (64EG1PEH). Total EGFR expression was monitored using the Cisbio Total EGFR cellular kit (64NG1PEH) as per manufacturer's instructions. Fluorescence emission was read at two different wavelengths (665 nm and 620 nm) on a PheraStar. Results were calculated as ratio of pEGFR/total EGFR and then percentage of OuM control.

T2 sequence (P00533 25-1210 T790M/C797S/L858R): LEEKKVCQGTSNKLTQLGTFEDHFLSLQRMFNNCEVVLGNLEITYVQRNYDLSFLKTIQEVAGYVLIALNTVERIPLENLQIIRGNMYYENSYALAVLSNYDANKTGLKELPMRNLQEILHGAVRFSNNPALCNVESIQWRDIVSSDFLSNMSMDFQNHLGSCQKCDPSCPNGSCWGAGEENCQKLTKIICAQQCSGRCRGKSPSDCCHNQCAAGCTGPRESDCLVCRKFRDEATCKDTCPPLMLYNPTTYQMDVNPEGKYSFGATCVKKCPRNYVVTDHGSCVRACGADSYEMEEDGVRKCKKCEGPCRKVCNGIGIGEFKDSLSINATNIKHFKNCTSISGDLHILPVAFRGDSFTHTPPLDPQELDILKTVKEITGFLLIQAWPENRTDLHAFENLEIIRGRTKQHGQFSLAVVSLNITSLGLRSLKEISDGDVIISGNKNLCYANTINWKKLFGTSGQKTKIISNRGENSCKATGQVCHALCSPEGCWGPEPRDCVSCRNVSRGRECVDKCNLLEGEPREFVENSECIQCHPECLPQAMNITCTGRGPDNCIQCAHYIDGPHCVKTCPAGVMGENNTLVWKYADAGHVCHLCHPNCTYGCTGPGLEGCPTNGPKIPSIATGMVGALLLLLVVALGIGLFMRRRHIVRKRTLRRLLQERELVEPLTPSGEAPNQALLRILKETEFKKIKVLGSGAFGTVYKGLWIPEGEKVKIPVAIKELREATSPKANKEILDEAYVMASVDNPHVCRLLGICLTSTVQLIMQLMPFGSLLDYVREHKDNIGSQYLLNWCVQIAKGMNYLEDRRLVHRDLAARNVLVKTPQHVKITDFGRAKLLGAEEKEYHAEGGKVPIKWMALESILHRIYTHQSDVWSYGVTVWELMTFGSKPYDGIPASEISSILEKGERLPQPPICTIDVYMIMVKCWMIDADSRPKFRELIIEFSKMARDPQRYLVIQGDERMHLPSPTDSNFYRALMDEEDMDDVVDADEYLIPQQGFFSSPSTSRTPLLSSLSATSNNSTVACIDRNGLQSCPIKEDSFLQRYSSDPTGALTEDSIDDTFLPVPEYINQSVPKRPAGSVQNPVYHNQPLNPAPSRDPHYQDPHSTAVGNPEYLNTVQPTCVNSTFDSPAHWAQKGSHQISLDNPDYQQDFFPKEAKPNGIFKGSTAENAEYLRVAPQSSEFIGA
Chain of CtermHisTag-mEGFR Triple Mutant - C797S, L858R, T790M (P00533 25-1210 T790M/C797S/L858R): as above
Chain of CtermHisTag-mEGFR Wild type (P00533 25-1210): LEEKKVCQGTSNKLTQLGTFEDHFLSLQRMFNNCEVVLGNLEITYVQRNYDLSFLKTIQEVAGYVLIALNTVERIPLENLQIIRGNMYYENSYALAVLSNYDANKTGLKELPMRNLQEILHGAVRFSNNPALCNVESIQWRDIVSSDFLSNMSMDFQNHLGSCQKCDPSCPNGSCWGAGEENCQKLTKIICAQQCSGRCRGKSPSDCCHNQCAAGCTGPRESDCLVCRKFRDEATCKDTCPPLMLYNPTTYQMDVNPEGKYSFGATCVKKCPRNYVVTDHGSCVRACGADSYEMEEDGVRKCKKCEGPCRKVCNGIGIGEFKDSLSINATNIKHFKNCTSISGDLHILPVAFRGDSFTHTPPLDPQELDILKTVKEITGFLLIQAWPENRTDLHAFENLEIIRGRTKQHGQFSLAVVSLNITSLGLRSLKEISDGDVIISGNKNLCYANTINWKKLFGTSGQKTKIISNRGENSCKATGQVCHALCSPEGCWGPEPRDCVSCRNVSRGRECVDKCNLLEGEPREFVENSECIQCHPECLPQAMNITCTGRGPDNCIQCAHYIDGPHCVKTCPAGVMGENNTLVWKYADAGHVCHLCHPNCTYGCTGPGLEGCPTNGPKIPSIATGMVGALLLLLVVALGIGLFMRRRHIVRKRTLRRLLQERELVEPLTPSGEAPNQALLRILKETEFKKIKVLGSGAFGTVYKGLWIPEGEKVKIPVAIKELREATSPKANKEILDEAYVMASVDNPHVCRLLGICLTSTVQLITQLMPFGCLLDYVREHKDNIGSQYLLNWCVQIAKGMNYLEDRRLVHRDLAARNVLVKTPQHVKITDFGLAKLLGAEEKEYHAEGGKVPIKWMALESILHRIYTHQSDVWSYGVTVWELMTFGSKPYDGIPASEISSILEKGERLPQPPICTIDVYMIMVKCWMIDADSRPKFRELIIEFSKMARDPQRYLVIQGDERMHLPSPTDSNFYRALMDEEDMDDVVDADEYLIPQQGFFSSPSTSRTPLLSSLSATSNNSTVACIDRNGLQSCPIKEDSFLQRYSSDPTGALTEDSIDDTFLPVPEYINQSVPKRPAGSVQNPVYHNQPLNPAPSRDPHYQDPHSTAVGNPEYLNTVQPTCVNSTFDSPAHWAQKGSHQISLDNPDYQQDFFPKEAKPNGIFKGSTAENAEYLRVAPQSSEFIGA
T3 sequence (P00533 25-1210): as above

SMILES: C#Cc1cc(N2C(=O)OCC2C(C)C)nc2nc(Nc3ccc(N4CCN(C)CC4)cc3)ncc12 (stereo not shown) [Example 68, 3-(5-ethynyl-2-{[4-(4-methylpiperazin-1-yl)phenyl]amino}pyrido[2,3-d]pyrimidin-7-yl)-4-isopropyl-1.3-oxazolidin-2-one]
IC50 [1]: < 20 nM
IC50 [2]: < 500 nM
IC50 [3]: 1000 to 3000 nM
IC50 [4]: 1000 to 10000 nM
IC50 [5]: > 3000 nM

SMILES: C#Cc1cc(NC(=O)NC2CN(C(C)=O)C2)nc2nc(Nc3ccc(N4CCN(C)CC4)cc3)ncc12 [Example 54]
IC50 [1]: < 20 nM
IC50 [2]: > 3000 nM
IC50 [3]: > 3000 nM
IC50 [4]: 1000 to 10000 nM
IC50 [5]: > 3000 nM

SMILES: C#Cc1cc(OC2CCC2)nc2nc(Nc3ccc(N4CCN(C)CC4)cc3)ncc12 [Example 18, 7-cyclobutoxy-5-ethynyl-N-[4-(4-methylpiperazin-1-yl)phenyl]pyrido[2,3-d]pyrimidin-2-amine]
IC50 [1]: 20 to 100 nM
IC50 [2]: > 3000 nM
IC50 [3]: > 3000 nM
IC50 [4]: > 10000 nM
IC50 [5]: > 3000 nM

SMILES: C#Cc1cc(NC(=O)NC2CCCC2)nc2nc(Nc3ccccc3N3CCCC(CS(C)(=O)=O)C3)ncc12 (stereo not shown) [Example 118, 3-Cyclopentyl-1-[5-ethynyl-2-({2-[3-(methanesulfonylmethyl)piperidin-1-yl]phenyl}amino)pyrido[2,3-d]pyrimidin-7-yl]urea]
IC50 [1]: 1000 to 50000 nM
IC50 [2]: > 3000 nM
IC50 [3]: > 3000 nM
IC50 [4]: > 10000 nM
IC50 [5]: > 3000 nM

SMILES: C#Cc1cc(Nc2nccn2C2CCCC2)nc2nc(Nc3ccc(N4CCN(C)CC4)cc3)ncc12 [Example 27, N^7-(1-cyclopentylmidazol-2-yl)-5-ethynyl-N^2-[4-(4-methylpiperazin-1-yl)phenyl]pyrido[2,3-d]pyrimidine-2,7-diamine]
IC50 [1]: 20 to 100 nM
IC50 [2]: 1000 to 3000 nM
IC50 [3]: > 3000 nM
IC50 [4]: < 1000 nM
IC50 [5]: > 3000 nM

SMILES: C#Cc1cc(Nc2ccccc2)nc2nc(Nc3ccc(N(C)CCN(C)C)cc3)ncc12 [Example 25, N^2-(4-{[2-(dimethylamino)ethyl](methyl)amino}phenyl)-5-ethynyl-N^7-phenylpyrido[2,3-d]pyrimidine-2,7-diamine]
IC50 [1]: 1000 to 50000 nM
IC50 [2]: > 3000 nM
IC50 [3]: > 3000 nM
IC50 [4]: > 10000 nM
IC50 [5]: > 3000 nM

SMILES: C#Cc1cc(NC(=O)NCc2ccno2)nc2nc(Nc3ccc(N4CCN(C)CC4)cc3)ncc12 [Example 47, 1-(5-ethynyl-2-{[4-(4-methylpiperazin-1-yl)phenyl]amino}pyrido[2,3-d]pyrimidin-7-yl)-3-(1,2-oxazol-5-ylmethyl)urea]
IC50 [1]: 20 to 100 nM
IC50 [2]: 500 to 1000 nM
IC50 [3]: 1000 to 3000 nM
IC50 [4]: < 1000 nM
IC50 [5]: > 3000 nM

SMILES: C#Cc1cc(NC(=O)NCC2CCCO2)nc2nc(Nc3ccc(N4CCN(C)CC4)cc3)ncc12 (stereo not shown) [Example 50, 1-(5-ethynyl-2-{[4-(4-methylpiperazin-1-yl)phenyl]amino}pyrido[2,3-d]pyrimidin-7-yl)-3-(oxolan-2-ylmethyl)urea]
IC50 [1]: 20 to 100 nM
IC50 [2]: < 500 nM
IC50 [3]: 500 to 1000 nM
IC50 [4]: < 1000 nM
IC50 [5]: > 3000 nM

SMILES: C#Cc1cc(NC(=O)NC2COC2)nc2nc(Nc3ccc(N4CCN(C)CC4)cc3)ncc12 [Example 43, 1-(5-ethynyl-2-{[4-(4-methylpiperazin-1-yl)phenyl]amino}pyrido[2,3-d]pyrimidin-7-yl)-3-(oxetan-3-ylI)urea]
IC50 [1]: < 20 nM
IC50 [2]: < 500 nM
IC50 [3]: < 500 nM
IC50 [4]: < 1000 nM
IC50 [5]: > 3000 nM

SMILES: C#Cc1cc(N2C(=O)NCC2C2CCCC2)nc2nc(Nc3ccc(N4CCN(C)CC4)cc3)ncc12 (stereo not shown) [Example 124, 5-Cyclopentyl-1-(5-ethynyl-2-{[4-(4-methylpiperazin-1-yl)phenyl]amino}pyrido[2,3-d]pyrimidin-7-yl)imidazolidin-2-one]
IC50 [1]: 20 to 100 nM
IC50 [2]: 500 to 1000 nM
IC50 [3]: < 500 nM
IC50 [4]: < 1000 nM
IC50 [5]: > 3000 nM

SMILES: C#Cc1cc(NC(=O)NCC2CCOC2)nc2nc(Nc3ccc(N4CCN(C)CC4)cc3)ncc12 (stereo not shown) [Example 51, 1-(5-ethynyl-2-{[4-(4-methylpiperazin-1-yl)phenyl]amino}pyrido[2,3-d]pyrimidin-7-yl)-3-(oxolan-3-ylmethyl)urea]
IC50 [1]: < 20 nM
IC50 [2]: < 500 nM
IC50 [3]: < 500 nM
IC50 [4]: < 1000 nM
IC50 [5]: > 3000 nM

SMILES: C#Cc1cc(OC2CC2)nc2nc(Nc3ccc(N4CCN(C)CC4)cc3)ncc12 [Example 16, 7-cyclopropoxy-5-ethynyl-N-[4-(4-methylpiperazin-1-yl)phenyl]pyrido[2,3-d]pyrimidin-2-amine]
IC50 [1]: 100 to 1000 nM
IC50 [2]: 1000 to 3000 nM
IC50 [3]: > 3000 nM
IC50 [4]: > 10000 nM
IC50 [5]: > 3000 nM

The next lines start with the values.

IC50 [1]: < 20 nM
IC50 [2]: 1000 to 3000 nM
IC50 [3]: > 3000 nM
IC50 [4]: < 1000 nM
IC50 [5]: 1000 to 3000 nM
SMILES: C#Cc1cc(N2CCOC2=O)nc2nc(Nc3ccc(N4CCN(C)CC4)cc3)ncc12 [Example 71, 3-(5-ethynyl-2-{[4-(4-methylpiperazin-1-yl)phenyl]amino}pyrido[2,3-d]pyrimidin-7-yl)-1,3-oxazolidin-2-one]

IC50 [1]: 100 to 1000 nM
IC50 [2]: > 3000 nM
IC50 [3]: > 3000 nM
IC50 [4]: > 10000 nM
IC50 [5]: > 3000 nM
SMILES: C#Cc1cc(OC2CCCCC2)nc2nc(Nc3ccc(N4CCN(C)CC4)cc3)ncc12 [Example 14, 7-(cyclohexyloxy)-5-ethynyl-N-(4-(4-methylpiperazin-1-yl)phenyl)pyrido[2,3-d]pyrimidin-2-amine]

IC50 [1]: 100 to 1000 nM
IC50 [2]: > 3000 nM
IC50 [3]: > 3000 nM
IC50 [4]: > 10000 nM
IC50 [5]: > 3000 nM
SMILES: C#Cc1cc(N2C(=O)N(C)CC23CCCC3)nc2nc(Nc3ccc(N(C)C(C)=O)cc3)ncc12 [Example 105, N-{4-[(5-Ethynyl-7-{3-methyl-2-oxo-1,3-diazaspiro[4.4]nonan-1-yl}pyrido[2,3-d]pyrimidin-2-yl)amino]phenyl}-N-methylacetamide]

IC50 [1]: 20 to 100 nM
IC50 [2]: 500 to 1000 nM
IC50 [3]: 1000 to 3000 nM
IC50 [4]: < 1000 nM
IC50 [5]: > 3000 nM
SMILES: C#Cc1cc(NC(=O)NCc2cnco2)nc2nc(Nc3ccc(N4CCN(C)CC4)cc3)ncc12 [Example 45, 1-(5-ethynyl-2-{[4-(4-methylpiperazin-1-yl)phenyl]amino}pyrido[2,3-d]pyrimidin-7-yl)-3-(1,3-oxazol-5-ylmethyl)urea]

IC50 [1]: 20 to 100 nM
IC50 [2]: > 3000 nM
IC50 [3]: > 3000 nM
IC50 [4]: > 10000 nM
IC50 [5]: > 3000 nM
SMILES: C#Cc1cc(NS(C)(=O)=O)nc2c1=CNC(Nc1ccc(N(C)CCN(C)C)cc1)N=2 (stereo not shown) [Example 33]
